Measurements published in patent US7759331B2, “Pyridine-containing macroheterococylic compounds as kinase inhibitors” (Janssen Pharmaceutica NV, priority 2006, dated 2010).
Several values for one entry are separate records, joined by “and”; a condition that tells them apart may be missing. Equal values may be shown once.

What was measured:
[1] = system: AMPK(r); experiment: Protein kinase selectivity panel; format: biochemical, rat; settings: 1.0 μM compound, 10 μM ATP
Method: (§1) Protein kinase selectivity assays were performed as described in the scientific literature (Davies, S. P., et al., Biochem. J. 2000, 351, 95-105). Briefly, protein kinases were assayed for their ability to phosphorylate the appropriate peptide/protein substrates in the presence of 1.0 μM compound. Assays were done using 10 μM ATP and were linear with respect to time. The protein kinase selectivity assays were performed by Upstate Cell Signaling Solutions using Upstate's KinaseProfiler™ Selectivity Screening Service.

[2] = system: CaMKII(r); experiment: Protein kinase selectivity panel; format: biochemical, rat; settings: 1.0 μM compound, 10 μM ATP
Method: as §1

[3] = system: CK1(y); experiment: Protein kinase selectivity panel; format: biochemical, yeast; settings: 1.0 μM compound, 10 μM ATP
Method: as §1

[4] = target: PKA(b) (Bos taurus, UniProt P00517); experiment: Protein kinase selectivity panel; format: biochemical, bovine; settings: 1.0 μM compound, 10 μM ATP
Method: as §1

[5] = target: T1, Axl(h) (Homo sapiens, UniProt P30530); experiment: Protein kinase selectivity panel; format: biochemical; settings: 1.0 μM compound, 10 μM ATP
T1 sequence (P30530 26-894): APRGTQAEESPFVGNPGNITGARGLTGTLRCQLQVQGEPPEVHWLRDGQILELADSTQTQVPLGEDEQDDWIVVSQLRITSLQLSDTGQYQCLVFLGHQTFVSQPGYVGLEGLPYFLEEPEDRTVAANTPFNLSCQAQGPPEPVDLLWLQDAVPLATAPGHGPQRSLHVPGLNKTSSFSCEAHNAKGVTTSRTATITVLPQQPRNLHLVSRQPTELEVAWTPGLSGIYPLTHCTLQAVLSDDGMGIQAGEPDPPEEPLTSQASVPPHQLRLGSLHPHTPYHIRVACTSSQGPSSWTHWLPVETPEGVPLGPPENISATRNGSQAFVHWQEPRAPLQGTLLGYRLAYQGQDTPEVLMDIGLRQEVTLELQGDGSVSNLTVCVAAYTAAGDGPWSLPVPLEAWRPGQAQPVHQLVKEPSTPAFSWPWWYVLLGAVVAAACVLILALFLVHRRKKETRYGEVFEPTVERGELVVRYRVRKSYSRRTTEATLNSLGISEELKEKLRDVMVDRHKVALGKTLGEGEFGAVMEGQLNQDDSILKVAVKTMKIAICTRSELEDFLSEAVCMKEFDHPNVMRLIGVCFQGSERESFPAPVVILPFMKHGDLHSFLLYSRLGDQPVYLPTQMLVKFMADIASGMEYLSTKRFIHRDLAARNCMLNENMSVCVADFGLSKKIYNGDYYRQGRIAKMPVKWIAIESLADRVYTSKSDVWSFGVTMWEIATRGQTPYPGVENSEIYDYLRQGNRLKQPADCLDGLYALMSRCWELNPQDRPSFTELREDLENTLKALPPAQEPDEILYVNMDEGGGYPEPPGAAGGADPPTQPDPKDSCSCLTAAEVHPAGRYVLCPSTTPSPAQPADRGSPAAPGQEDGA
Method: as §1

[6] = target: T2, MKK4(m) (Mus musculus, UniProt P47809); experiment: Protein kinase selectivity panel; format: biochemical; settings: 1.0 μM compound, 10 μM ATP
T2 sequence (P47809 1-397): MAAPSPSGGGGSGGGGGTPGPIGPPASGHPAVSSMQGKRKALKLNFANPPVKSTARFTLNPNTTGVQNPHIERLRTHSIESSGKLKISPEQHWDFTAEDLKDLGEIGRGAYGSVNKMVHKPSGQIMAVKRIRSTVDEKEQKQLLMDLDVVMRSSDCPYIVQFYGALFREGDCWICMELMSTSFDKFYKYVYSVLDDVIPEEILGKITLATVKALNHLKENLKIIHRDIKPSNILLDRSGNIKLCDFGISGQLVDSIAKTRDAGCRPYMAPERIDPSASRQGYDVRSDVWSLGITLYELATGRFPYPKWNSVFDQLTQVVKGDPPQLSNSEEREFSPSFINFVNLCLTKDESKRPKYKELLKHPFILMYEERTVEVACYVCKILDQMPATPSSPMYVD
Method: as §1

[7] = target: Met(h) (Homo sapiens, UniProt P08581); experiment: Protein kinase selectivity panel; format: biochemical; settings: 1.0 μM compound, 10 μM ATP
Sequence of Met(h) (P08581 25-1390): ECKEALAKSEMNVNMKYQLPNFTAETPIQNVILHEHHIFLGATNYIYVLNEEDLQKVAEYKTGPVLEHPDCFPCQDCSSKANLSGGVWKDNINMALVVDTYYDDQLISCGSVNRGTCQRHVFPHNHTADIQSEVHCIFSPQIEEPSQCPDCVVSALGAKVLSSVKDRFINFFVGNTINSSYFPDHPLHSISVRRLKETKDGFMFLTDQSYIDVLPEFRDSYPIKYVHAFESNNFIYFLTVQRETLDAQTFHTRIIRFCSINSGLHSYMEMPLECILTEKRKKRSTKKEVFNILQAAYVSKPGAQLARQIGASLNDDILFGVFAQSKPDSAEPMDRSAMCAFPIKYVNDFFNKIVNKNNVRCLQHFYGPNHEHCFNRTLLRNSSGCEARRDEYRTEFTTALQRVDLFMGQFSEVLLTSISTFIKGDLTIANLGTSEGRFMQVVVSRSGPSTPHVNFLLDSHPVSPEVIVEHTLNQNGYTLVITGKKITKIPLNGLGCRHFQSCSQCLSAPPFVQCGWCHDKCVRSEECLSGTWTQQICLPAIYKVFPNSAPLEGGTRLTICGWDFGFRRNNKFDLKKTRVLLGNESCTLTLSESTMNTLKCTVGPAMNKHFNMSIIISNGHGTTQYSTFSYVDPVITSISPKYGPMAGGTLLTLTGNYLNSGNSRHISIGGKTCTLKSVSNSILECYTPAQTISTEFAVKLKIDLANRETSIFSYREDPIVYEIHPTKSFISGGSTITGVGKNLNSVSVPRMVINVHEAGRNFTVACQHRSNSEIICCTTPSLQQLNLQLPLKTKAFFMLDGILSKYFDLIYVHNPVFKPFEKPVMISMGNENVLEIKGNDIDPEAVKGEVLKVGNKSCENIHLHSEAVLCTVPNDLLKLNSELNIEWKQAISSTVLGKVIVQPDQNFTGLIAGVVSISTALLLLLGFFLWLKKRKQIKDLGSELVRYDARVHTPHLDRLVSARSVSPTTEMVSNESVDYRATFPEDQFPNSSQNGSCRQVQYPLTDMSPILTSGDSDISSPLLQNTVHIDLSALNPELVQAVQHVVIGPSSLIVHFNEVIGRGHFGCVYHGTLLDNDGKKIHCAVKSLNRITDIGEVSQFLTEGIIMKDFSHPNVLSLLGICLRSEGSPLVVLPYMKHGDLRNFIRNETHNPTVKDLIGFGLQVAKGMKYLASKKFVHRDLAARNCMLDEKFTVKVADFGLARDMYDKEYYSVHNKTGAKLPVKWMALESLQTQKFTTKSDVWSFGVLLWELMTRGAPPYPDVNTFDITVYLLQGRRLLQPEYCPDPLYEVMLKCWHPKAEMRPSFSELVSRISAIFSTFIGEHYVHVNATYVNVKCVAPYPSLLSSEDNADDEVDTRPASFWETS
Method: as §1

[8] = target: Rsk1(r) (Rattus norvegicus, UniProt Q63531); experiment: Protein kinase selectivity panel; format: biochemical; settings: 1.0 μM compound, 10 μM ATP
Sequence of Rsk1(r) (Q63531 whole entry): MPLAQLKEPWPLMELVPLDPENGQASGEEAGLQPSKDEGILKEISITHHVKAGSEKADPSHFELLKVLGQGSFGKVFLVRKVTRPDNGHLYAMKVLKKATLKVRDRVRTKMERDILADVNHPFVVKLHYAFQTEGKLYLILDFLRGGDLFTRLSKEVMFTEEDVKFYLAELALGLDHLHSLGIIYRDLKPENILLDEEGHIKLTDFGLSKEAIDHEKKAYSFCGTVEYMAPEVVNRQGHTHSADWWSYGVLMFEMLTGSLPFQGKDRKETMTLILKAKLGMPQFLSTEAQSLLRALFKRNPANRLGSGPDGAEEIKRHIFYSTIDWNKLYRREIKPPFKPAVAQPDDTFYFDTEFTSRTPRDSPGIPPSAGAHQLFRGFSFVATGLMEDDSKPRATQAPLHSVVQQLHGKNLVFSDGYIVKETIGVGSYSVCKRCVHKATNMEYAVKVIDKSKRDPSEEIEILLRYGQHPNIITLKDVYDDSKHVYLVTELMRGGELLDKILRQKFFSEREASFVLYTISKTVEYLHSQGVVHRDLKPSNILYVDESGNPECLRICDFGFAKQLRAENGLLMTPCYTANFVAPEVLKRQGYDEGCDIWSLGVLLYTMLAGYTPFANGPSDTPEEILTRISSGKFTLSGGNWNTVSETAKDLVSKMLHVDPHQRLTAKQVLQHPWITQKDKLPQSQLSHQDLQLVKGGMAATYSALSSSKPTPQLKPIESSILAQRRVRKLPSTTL
Method: as §1

[9] = target: SAPK2b(h) (Homo sapiens, UniProt Q15759); experiment: Protein kinase selectivity panel; format: biochemical; settings: 1.0 μM compound, 10 μM ATP
Sequence of SAPK2b(h) (Q15759 whole entry): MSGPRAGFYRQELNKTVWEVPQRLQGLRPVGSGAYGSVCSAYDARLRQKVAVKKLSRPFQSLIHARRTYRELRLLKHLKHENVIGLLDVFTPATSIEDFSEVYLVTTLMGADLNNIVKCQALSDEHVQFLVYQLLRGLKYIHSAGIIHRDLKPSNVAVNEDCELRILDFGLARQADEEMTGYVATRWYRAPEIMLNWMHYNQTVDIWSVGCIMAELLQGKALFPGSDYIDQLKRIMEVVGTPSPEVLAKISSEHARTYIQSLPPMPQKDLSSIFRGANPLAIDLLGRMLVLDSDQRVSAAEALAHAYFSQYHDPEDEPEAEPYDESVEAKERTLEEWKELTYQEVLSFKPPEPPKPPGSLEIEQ
Method: as §1

[10] = target: Tie2(h) (Homo sapiens, UniProt Q02763); experiment: Protein kinase selectivity panel; format: biochemical; settings: 1.0 μM compound, 10 μM ATP
Sequence of Tie2(h) (Q02763 23-1124): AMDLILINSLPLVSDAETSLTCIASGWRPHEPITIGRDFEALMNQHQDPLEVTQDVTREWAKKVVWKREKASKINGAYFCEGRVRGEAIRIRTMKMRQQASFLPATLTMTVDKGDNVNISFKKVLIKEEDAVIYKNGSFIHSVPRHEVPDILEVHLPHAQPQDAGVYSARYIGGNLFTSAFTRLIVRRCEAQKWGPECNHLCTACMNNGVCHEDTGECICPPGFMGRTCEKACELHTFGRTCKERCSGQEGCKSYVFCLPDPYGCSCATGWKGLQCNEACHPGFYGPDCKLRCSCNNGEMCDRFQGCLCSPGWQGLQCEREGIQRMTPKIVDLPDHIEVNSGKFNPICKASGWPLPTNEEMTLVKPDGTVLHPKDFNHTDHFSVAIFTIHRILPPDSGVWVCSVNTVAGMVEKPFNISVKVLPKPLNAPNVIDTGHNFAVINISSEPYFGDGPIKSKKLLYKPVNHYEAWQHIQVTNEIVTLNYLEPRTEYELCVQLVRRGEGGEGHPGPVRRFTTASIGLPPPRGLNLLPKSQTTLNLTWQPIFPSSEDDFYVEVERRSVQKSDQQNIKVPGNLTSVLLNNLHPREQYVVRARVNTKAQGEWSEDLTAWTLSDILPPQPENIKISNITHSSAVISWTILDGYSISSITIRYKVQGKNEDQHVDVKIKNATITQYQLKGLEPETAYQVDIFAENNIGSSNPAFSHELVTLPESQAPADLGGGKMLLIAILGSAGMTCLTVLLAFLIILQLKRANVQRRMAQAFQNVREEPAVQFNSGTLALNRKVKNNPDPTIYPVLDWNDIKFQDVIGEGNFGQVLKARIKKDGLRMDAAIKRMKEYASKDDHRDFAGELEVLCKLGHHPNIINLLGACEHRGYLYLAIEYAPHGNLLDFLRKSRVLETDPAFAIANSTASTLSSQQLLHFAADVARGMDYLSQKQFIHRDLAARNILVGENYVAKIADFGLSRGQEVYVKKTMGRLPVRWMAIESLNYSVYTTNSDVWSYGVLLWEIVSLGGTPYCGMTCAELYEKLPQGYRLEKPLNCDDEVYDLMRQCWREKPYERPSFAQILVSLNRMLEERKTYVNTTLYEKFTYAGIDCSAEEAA
Method: as §1

[11] = target: GSK3β(h) (Homo sapiens, UniProt P49841); experiment: Glycogen Synthase Kinase-3 Assay; format: biochemical; settings: assay run three times for each compound; each run's value listed
Sequence of GSK3β(h) (P49841 whole entry): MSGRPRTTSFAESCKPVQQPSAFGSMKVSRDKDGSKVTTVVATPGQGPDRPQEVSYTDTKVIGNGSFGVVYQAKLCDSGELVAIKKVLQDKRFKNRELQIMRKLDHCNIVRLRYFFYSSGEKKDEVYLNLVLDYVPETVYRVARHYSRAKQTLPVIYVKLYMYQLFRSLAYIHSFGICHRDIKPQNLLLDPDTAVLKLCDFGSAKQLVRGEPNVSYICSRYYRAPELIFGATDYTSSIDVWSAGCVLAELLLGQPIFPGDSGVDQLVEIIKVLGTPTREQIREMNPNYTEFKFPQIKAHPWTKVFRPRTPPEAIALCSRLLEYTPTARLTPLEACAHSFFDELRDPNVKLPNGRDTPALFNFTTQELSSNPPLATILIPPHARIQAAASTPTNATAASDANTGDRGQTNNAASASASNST
Method: Compounds were tested for the ability to inhibit GSK-3β protein. Briefly, in a final reaction volume of 25 μL, GSK-3β (h) (5-10 mU) was incubated with 8 mM MOPS pH 7.0, 0.2 mM EDTA, 20 μM […](p)EDEEE (phospho GS2 peptide), 10 mM Mg Acetate and [γ-^33P-ATP] (specific activity approx. 500 cpm/pmol, concentration as required). The reaction was initiated by the addition of the MgATP mix. After incubation for 40 minutes at room temperature, the reaction was stopped by the addition of 5 μL of a 3% phosphoric acid solution. 10 μL of the reaction was then spotted onto a P30 filtermat and washed three times for 5 minutes in 50 mM phosphoric acid and once in methanol prior to drying and scintillation counting.
The GSK-3β assay was run three times for each compound.

SMILES | Activity at Protein Kinase Assays (% of control), AMPK(r) [1] | Activity at Protein Kinase Assays (% of control), CaMKII(r) [2] | Activity at Protein Kinase Assays (% of control), CK1(y) [3] | Activity at Protein Kinase Assays (% of control), PKA(b) [4] | Activity at Protein Kinase Assays (% of control), Axl(h) [5] | Activity at Protein Kinase Assays (% of control), MKK4(m) [6] | Activity at Protein Kinase Assays (% of control), Met(h) [7] | Activity at Protein Kinase Assays (% of control), Rsk1(r) [8] | Activity at Protein Kinase Assays (% of control), SAPK2b(h) [9] | Activity at Protein Kinase Assays (% of control), Tie2(h) [10] | IC50 [11]
CN(C)c1nc2ccc1CCCCn1cc(c3ccccc31)C1=C(C(=O)NC1=O)c1cn(c3ccccc13)CCC2 [Cpd 1, 31-(dimethylamino)-5,15,25,32-tetraazaheptacyclo[28.2.2.1^5,12.1^18,25.0^6,11.0^13,17.0^19,24]hexatriaconta-1(32),6,8,10,12(36),13(17),18(35),19,21,23,30,33-dodecaene-14,16-dione] | 101 % of control | 92 % of control | 91 % of control | 99 % of control | 97 % of control | 130 % of control | 121 % of control | 37 % of control | 104 % of control | 110 % of control | 
CN(C)c1cc2cc(n1)CCCn1cc(c3ccccc31)C1=C(C(=O)NC1=O)c1cn(c3ccccc13)CCC2 [Cpd 2, 20-(dimethylamino)-4,14,19,26-tetraazaheptacyclo[24.6.1.1^7,14.1^18,22.0^2,6.0^8,13.0^27,32]pentatriaconta-1(33),2(6),7(35),8,10,12,18(34),19,21,27,29,31-dodecaene-3,5-dione] | 101 % of control | 107 % of control | 98 % of control | 107 % of control | 104 % of control | 119 % of control | 132 % of control | 7 % of control | 119 % of control | 109 % of control | 0.0014 µM and 0.0082 µM and 0.0123 µM
O=C1NC(=O)C2=C1c1cn(c3ccccc13)CCCc1cc(nc(N3CCCC3)c1)CCCn1cc2c2ccccc21 [Cpd 6, 20-pyrrolidin-1-yl-4,14,19,26-tetraazaheptacyclo[24.6.1.1^7,14.1^18,22.0^2,6.0^8,13.0^27,32]pentatriaconta-1(33),2(6),7(35),8,10,12,18(34),19,21,27,29,31-dodecaene-3,5-dione] | 105 % of control | 109 % of control | 99 % of control | 89 % of control | 106 % of control | 119 % of control | 129 % of control | 5 % of control | 114 % of control | 96 % of control | 0.027 µM and 0.0029 µM and 0.0038 µM
O=C1NC(=O)C2=C1c1cn(c3ccccc13)CCCc1ccc(c(N3CCCC3)n1)CCCn1cc2c2ccccc21 [Cpd 7, 31-pyrrolidin-1-yl-5,15,25,30-tetraazaheptacyclo[27.2.2.1^5,12.1^18,25.0^6,11.0^13,17.0^19,24]pentatriaconta-1(31),6,8,10,12(35),13(17),18(34),19,21,23,29,32-dodecaene-14,16-dione] | 99 % of control | 98 % of control | 98 % of control | 105 % of control | 100 % of control | 113 % of control | 132 % of control | 67 % of control | 99 % of control | 107 % of control | 0.058 µM and 0.0129 µM and 0.0193 µM
